Results: the supplement of paper PMC11208160

test: recombinant barcode read abundance after kanamycin selection (control-corrected) (log10(CPM+1)); higher = more efficient recombination; sequences stand for … in AGTGCAGAGAAAATCGGCCAGTTTTCTCTGCCTGCAGTCCGCATGCCGT…AGATTTATGCAGCGGACTGCCTTTCTCCCAAAGTGATAAACCGGACAGTATCATGGACCGGTTTTCCCGGTAATCCGTATTTGCAAGGTTGGTTTCACT; site = the 11-nt target
How it was run: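 Pooled oligos, each joining a target to an IS621 bridge RNA target-binding loop, were cloned and co-electroporated with a donor plasmid into E. coli. Selective plates carried chloramphenicol/ampicillin/kanamycin and 0.1 mM IPTG, while chloramphenicol/ampicillin LB agar served as control, with two replicates of each. Recombination efficiency rests on averaged, control-corrected counts per million of barcodes at recombinant junctions, shown as log10(CPM+1).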
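Further: IS621 recombinase and bridge RNA in Escherichia coli cells.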

Sequence	recombinant barcode read abundance (log10)
GCATGACCTTGGGTTCTAACCTGTTGCAG (site GCATGACCTCT)	1.23
GCATGGACTTGGGTTCTAACCTGTTGCAG (site GCAAGGACTCT)	0.878
GCATGGACTTGGGTTCTAACCTGTTGCAG (site GCACGGACTCT)	1.92
GCATGGACTTGGGTTCTAACCTGTTGCAG (site GCAGGGACTCT)	0.241
GCATGGACTTGGGTTCTAACCTGTTGCAG (site GCATGGACTCT)	2.24
GCCAACCCTTGGGTTCTAACCTGTTGCCT (site GCCAACCCTAA)	0.111
GCCAACCCTTGGGTTCTAACCTGTTGCCT (site GCCAACCCTAC)	0.0192
GCCAACCCTTGGGTTCTAACCTGTTGCCT (site GCCAACCCTAG)	0.326
GCCAACCCTTGGGTTCTAACCTGTTGCCT (site GCCAACCCTAT)	0.0781
GCCAAGCCTTGGGTTCTAACCTGTTGCTG (site GCCAAGCCTCA)	0.257
GCCAAGCCTTGGGTTCTAACCTGTTGCTG (site TCCAACCCTCA)	0.0182
GCCAAGGCTTGGGTTCTAACCTGTTGCCT (site AGTTTCACTTA)	0.0355
GCCAAGGCTTGGGTTCTAACCTGTTGCCT (site GCCAAGGCTAG)	0.407
GCCACGCCTTGGGTTCTAACCTGTTGCAG (site GCCACGCCTCT)	0.115
GCCACGCCTTGGGTTCTAACCTGTTGCAG (site GCCCCGCCTCT)	0.0522
GCCACGCCTTGGGTTCTAACCTGTTGCAG (site GCCGCGCCTCT)	0.053
GCCACGCCTTGGGTTCTAACCTGTTGCAG (site GCCTCGCCTCT)	0.389
GCCATGTCTTGGGTTCTAACCTGTTGCTA (site ACCTTGTCTTA)	0.0829
GCCATGTCTTGGGTTCTAACCTGTTGCTA (site GCCATGTCTTA)	0.145
GCCCGTCCTTGGGTTCTAACCTGTTGCCG (site CTCCGTCCTCG)	0.116
GCCCGTCCTTGGGTTCTAACCTGTTGCCG (site GCCCGTCCTCG)	1
GCCGAGTCTTGGGTTCTAACCTGTTGCCT (site GCCGAGTCTAG)	1.03

Sequence	recombinant barcode read abundance (log10)
GCCGAGTCTTGGGTTCTAACCTGTTGCCT (site GCCGAGTCTGT)	0.142
GCCGAGTCTTGGGTTCTAACCTGTTGCTG (site GCCGAGTCTAA)	0.11
GCCGAGTCTTGGGTTCTAACCTGTTGCTG (site GCCGAGTCTCA)	0.564
GCCGAGTCTTGGGTTCTAACCTGTTGCTG (site GCCGAGTCTGA)	0
GCCGAGTCTTGGGTTCTAACCTGTTGCTG (site GCCGAGTCTTA)	0.219
GCCGGGTCTTGGGTTCTAACCTGTTGCTT (site GCAGGGTCTAA)	1.26
GCCGGGTCTTGGGTTCTAACCTGTTGCTT (site GCCGGGTCTAA)	0.812
GCCGGGTCTTGGGTTCTAACCTGTTGCTT (site GCGGGGTCTAA)	0.092
GCCGGGTCTTGGGTTCTAACCTGTTGCTT (site GCTGGGTCTAA)	0.337
GCCGGTCCTTGGGTTCTAACCTGTTGCCT (site GCAGGTCCTAG)	0.522
GCCGGTCCTTGGGTTCTAACCTGTTGCCT (site GCCGGTCCTAG)	0.549
GCCGGTCCTTGGGTTCTAACCTGTTGCCT (site GCGGGTCCTAG)	0.451
GCCGGTCCTTGGGTTCTAACCTGTTGCCT (site GCTGGTCCTAG)	0.14
GCCGTAGCTTGGGTTCTAACCTGTTGCCT (site GACGTAGCTAG)	0.0542
GCCGTAGCTTGGGTTCTAACCTGTTGCCT (site GCCGTAGCTAG)	0.0284
GCCGTAGCTTGGGTTCTAACCTGTTGCCT (site GGCGTAGCTAG)	0.163
GCCGTAGCTTGGGTTCTAACCTGTTGCCT (site GTCGTAGCTAG)	0.00812
GCCTGCCCTTGGGTTCTAACCTGTTGCCT (site GACTGCCCTAG)	0.0828
GCCTGCCCTTGGGTTCTAACCTGTTGCCT (site GCCTGCCCTAG)	0.892
GCCTGCCCTTGGGTTCTAACCTGTTGCCT (site GGCTGCCCTAG)	0.0211
GCCTGCCCTTGGGTTCTAACCTGTTGCCT (site GTCTGCCCTAG)	0.0318
GCGAACCCTTGGGTTCTAACCTGTTGCGG (site GCGAACCCTCC)	0.967

Sequence	recombinant barcode read abundance (log10)
GCGAACCCTTGGGTTCTAACCTGTTGCGG (site GCTAACCCTAC)	0.0412
GCGACATCTTGGGTTCTAACCTGTTGCCT (site GCGACATCTAG)	0.428
GCGACATCTTGGGTTCTAACCTGTTGCCT (site TAAGATGCTCC)	0.162
GCGCGCCCTTGGGTTCTAACCTGTTGCTG (site GCGCGCCCTCA)	0.331
GCGCGCCCTTGGGTTCTAACCTGTTGCTG (site GCGCGCCCTCC)	0.0616
GCGCGGCCTTGGGTTCTAACCTGTTGCCT (site ACGCGGCCTAG)	0.56
GCGCGGCCTTGGGTTCTAACCTGTTGCCT (site CCGCGGCCTAG)	0.0374
GCGCGGCCTTGGGTTCTAACCTGTTGCCT (site GCGCGGCCTAG)	0.253
GCGCGGCCTTGGGTTCTAACCTGTTGCCT (site TCGCGGCCTAG)	0.0177
GCGGATCCTTGGGTTCTAACCTGTTGCTA (site AGATTAGCTCG)	0.159
GCGGATCCTTGGGTTCTAACCTGTTGCTA (site GCGGATCCTTA)	1.9
GCGGCTCCTTGGGTTCTAACCTGTTGCAT (site GCGACTCCTAT)	0.0805
GCGGCTCCTTGGGTTCTAACCTGTTGCAT (site GCGCCTCCTAT)	0.0751
GCGGCTCCTTGGGTTCTAACCTGTTGCAT (site GCGGCTCCTAT)	1.55
GCGGCTCCTTGGGTTCTAACCTGTTGCAT (site GCGTCTCCTAT)	0.331
GCGGGTACTTGGGTTCTAACCTGTTGCCT (site GCGGGTACTAG)	1.47
GCGGGTACTTGGGTTCTAACCTGTTGCCT (site GCGTGTACTAG)	0.0951
GCGTCCACTTGGGTTCTAACCTGTTGCTA (site GCGTCCACTTA)	0.0606
GCGTCCACTTGGGTTCTAACCTGTTGCTA (site GCGTGCCCTTA)	0.299
GCGTCCTCTTGGGTTCTAACCTGTTGCTT (site GCGTCCTCTAA)	0.636
GCGTCCTCTTGGGTTCTAACCTGTTGCTT (site TACCGTCCTCC)	0.0776
GCGTCTACTTGGGTTCTAACCTGTTGCCT (site GCGTCTACTAG)	0.169

Sequence	recombinant barcode read abundance (log10)
GCGTCTACTTGGGTTCTAACCTGTTGCCT (site GCGTGGACTAG)	0.051
GCGTGCCCTTGGGTTCTAACCTGTTGCTA (site GCGTCCACTTA)	0.00781
GCGTGCCCTTGGGTTCTAACCTGTTGCTA (site GCGTGCCCTTA)	0.356
GCGTGGACTTGGGTTCTAACCTGTTGCCT (site GCGTCTACTAG)	0.235
GCGTGGACTTGGGTTCTAACCTGTTGCCT (site GCGTGGACTAG)	1.61
GCGTTACCTTGGGTTCTAACCTGTTGCCT (site GCGTTACCTAG)	0.97
GCGTTACCTTGGGTTCTAACCTGTTGCCT (site GGGATACCTAG)	0.0535
GCTAAGACTTGGGTTCTAACCTGTTGCTG (site GCTAAGACTCA)	1.93
GCTAAGACTTGGGTTCTAACCTGTTGCTG (site GGTAAGACTCC)	0.0258
GCTACCTCTTGGGTTCTAACCTGTTGCCT (site GCTACCTCTAG)	1.6
GCTACCTCTTGGGTTCTAACCTGTTGCCT (site GTGACCTCTAG)	0.254
GCTAGCCCTTGGGTTCTAACCTGTTGCGG (site GCGAGCCCTAC)	0.0935
GCTAGCCCTTGGGTTCTAACCTGTTGCGG (site GCTAGCCCTCC)	1.83
GCTAGGGCTTGGGTTCTAACCTGTTGCAG (site GCAAGGGCTCG)	0.491
GCTAGGGCTTGGGTTCTAACCTGTTGCAG (site GCTAGGGCTCT)	2.94
GCTCAGACTTGGGTTCTAACCTGTTGCCT (site GCTCAGACTAG)	1.78
GCTCAGACTTGGGTTCTAACCTGTTGCCT (site GCTCAGCCTAG)	0.0925
GCTCAGACTTGGGTTCTAACCTGTTGCCT (site GCTCAGGCTAG)	0.132
GCTCAGACTTGGGTTCTAACCTGTTGCCT (site GCTCAGTCTAG)	0.0442
GCTCCTACTTGGGTTCTAACCTGTTGCCT (site GATCCTACTAG)	0.118
